Measurements taken from BindingDB's records for doi:10.1021/jm0503087 (Conforma Therapeutics, 2006).

molecular target: Heat shock protein HSP 90-beta (Homo sapiens, UniProt P08238); experiment: Her-2 Degradation Assay; settings: pH 7.2; 37 °C
Sequence (P08238 whole entry): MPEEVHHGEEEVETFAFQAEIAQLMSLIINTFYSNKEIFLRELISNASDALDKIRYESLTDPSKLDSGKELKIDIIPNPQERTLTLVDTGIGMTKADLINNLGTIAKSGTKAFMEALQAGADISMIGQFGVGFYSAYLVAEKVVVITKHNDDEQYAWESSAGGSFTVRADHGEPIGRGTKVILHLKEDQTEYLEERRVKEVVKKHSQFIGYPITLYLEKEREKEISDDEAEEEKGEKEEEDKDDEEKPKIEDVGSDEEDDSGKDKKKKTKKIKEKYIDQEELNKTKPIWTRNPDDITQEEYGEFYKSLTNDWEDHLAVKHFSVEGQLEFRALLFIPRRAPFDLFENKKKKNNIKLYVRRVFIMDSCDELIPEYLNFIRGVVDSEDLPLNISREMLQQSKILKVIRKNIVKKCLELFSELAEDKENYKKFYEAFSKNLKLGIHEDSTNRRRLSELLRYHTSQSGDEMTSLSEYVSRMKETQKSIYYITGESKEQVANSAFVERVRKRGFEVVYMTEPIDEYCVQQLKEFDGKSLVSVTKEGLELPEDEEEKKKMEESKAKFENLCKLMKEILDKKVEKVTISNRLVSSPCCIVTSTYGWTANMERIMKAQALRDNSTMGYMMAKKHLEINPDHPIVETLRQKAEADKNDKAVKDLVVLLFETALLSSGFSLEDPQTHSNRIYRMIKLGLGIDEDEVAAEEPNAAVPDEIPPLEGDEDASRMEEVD
Description: A fluorescence histogram was generated, and the mean fluorescence intensity (MFI) of each sample was determined using Cellquest software.

Compound | EC50 [nM]
COc1ccc(I)c(Sc2nc3c(N)ncnc3n2CCCNC(C)C)c1 [8-[(2-iodo-5-methoxyphenyl)sulfanyl]-9-[3-(propan-2-ylamino)propyl]-9H-purin-6-amine] | 180
CCCCn1c(Cc2cc(OC)ccc2OC)nc2c(N)ncnc21 [PU7] | 12000
COc1ccc(I)c(Sc2nc3c(N)ncnc3n2CCCNC(C)(C)C)c1 | 140
CCCCn1c(Cc2cc(OC)ccc2Cl)nc2c(N)ncnc21 [9-butyl-8-[(2-chloro-5-methoxyphenyl)methyl]-9H-purin-6-amine] | 20000
CCC(CC)NCCCn1c(Sc2cc(OC)ccc2I)nc2c(N)ncnc21 [8-[(2-iodo-5-methoxyphenyl)sulfanyl]-9-[3-(pentan-3-ylamino)propyl]-9H-purin-6-amine] | 210
CCCCn1c(Cc2cc(OC)ccc2I)nc2c(N)ncnc21 [9-butyl-8-[(2-iodo-5-methoxyphenyl)methyl]-9H-purin-6-amine] | 5000
COc1ccc(I)c(Sc2nc3c(N)ncnc3n2CCNCC(C)C)c1 [8-[(2-iodo-5-methoxyphenyl)sulfanyl]-9-{2-[(2-methylpropyl)amino]ethyl}-9H-purin-6-amine] | 100
CCCCn1c(Sc2cc(OC)ccc2OC)nc2c(N)ncnc21 [9-butyl-8-[(2,5-dimethoxyphenyl)sulfanyl]-9H-purin-6-amine] | 3500
CCC(C)NCCCn1c(Sc2cc(OC)ccc2I)nc2c(N)ncnc21 (configuration not stated) [9-[3-(butan-2-ylamino)propyl]-8-[(2-iodo-5-methoxyphenyl)sulfanyl]-9H-purin-6-amine] | 210
C#CCCCn1c(Sc2cc(OC)ccc2I)nc2c(N)nc(F)nc21 [2-fluoro-8-[(2-iodo-5-methoxyphenyl)sulfanyl]-9-(pent-4-yn-1-yl)-9H-purin-6-amine] | 360
CCCCn1c(Cc2cc(OC)ccc2Br)nc2c(N)ncnc21 [8-[(2-bromo-5-methoxyphenyl)methyl]-9-butyl-9H-purin-6-amine] | 8000
COc1ccc(I)c(Sc2nc3c(N)ncnc3n2CCC=C(C)C)c1 [8-[(2-iodo-5-methoxyphenyl)sulfanyl]-9-(4-methylpent-3-en-1-yl)-9H-purin-6-amine] | 370
